Measured values as given in ChEMBL document CHEMBL1201862, “PubChem BioAssay data set” (2004).
Active and inactive are the calls of the source.

Assays:
Leucine aminopeptidase = molecular target: T1, Leucine aminopeptidase (Plasmodium falciparum 3D7, UniProt Q8IL11); assay: P. falciparum M17LAP inhibitors, primary screen, biochemical, fluorogenic H-Leu-NHMec substrate, 1536-well (AID 1619); type: functional
T1 sequence (Q8IL11 whole entry): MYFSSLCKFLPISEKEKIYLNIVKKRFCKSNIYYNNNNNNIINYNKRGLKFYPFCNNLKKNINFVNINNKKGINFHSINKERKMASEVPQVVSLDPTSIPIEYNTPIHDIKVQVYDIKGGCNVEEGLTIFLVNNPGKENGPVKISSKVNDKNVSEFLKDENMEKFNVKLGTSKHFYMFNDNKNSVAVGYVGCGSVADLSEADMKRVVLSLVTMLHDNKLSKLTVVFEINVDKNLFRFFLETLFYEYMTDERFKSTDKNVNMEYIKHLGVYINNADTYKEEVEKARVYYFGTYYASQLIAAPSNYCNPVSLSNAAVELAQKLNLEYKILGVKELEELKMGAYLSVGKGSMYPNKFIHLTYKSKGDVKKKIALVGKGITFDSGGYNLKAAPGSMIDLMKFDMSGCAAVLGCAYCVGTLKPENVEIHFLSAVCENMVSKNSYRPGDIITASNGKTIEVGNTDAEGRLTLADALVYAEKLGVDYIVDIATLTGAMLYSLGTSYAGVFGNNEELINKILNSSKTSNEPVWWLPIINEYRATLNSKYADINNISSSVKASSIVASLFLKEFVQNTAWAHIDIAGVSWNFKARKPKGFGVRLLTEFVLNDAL

Genome polyprotein = Genome polyprotein (dengue virus type 2, UniProt P29990); assay: flavivirus cap methylation enzyme inhibition – biochemical, confirmation dose response, primary screen (AID 588689); type: functional
[1] = molecular target: T2, Corticotropin-releasing factor receptor 2/Corticotropin-releasing factor-binding protein (Homo sapiens, UniProt P24387+Q13324); assay: activators of CRF receptor 2 with binding protein – uHTS hits, confirmation (AID 602473); type: functional; conditions: read-out: EC50_Mean
T2 sequence (Q13324 whole entry): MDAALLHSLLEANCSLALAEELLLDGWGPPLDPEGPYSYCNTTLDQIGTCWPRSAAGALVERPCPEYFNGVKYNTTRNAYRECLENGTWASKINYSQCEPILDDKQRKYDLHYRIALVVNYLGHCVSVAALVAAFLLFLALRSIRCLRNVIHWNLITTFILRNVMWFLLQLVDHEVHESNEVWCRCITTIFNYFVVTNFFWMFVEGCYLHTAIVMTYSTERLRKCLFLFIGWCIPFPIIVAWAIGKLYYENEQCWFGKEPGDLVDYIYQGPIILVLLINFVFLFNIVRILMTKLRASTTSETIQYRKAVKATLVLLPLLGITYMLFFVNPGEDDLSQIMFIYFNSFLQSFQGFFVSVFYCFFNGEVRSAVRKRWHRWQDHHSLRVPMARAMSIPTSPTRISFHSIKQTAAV
T2 sequence (P24387 whole entry): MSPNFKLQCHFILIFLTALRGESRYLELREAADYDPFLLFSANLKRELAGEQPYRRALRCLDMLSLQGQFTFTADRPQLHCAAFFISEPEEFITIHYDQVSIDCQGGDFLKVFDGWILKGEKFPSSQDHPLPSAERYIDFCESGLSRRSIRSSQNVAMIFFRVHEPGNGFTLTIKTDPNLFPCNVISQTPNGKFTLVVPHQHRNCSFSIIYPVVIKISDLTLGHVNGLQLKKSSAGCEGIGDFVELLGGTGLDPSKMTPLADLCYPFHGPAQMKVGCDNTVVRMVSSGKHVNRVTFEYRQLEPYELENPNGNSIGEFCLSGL

fMet-Leu-Phe receptor = fMet-Leu-Phe receptor (Homo sapiens, UniProt P21462); assay: formyl peptide receptor binders – dose response (AID 519); type: functional
[2] = MITF Orthogonal Assay: SK-MEL-5 CTG Assay Measured in Cell-Based System Using Plate Reader - 2084-02_Inhibitor_Dose_DryPowder_Activity_Set7.; type: functional
[3] = inhibitors of TRPM1-promoter reporter in SK-MEL-5 – cell-based, luciferase, dry powder, set 8, MITF inhibitor project, dose response (AID 624430); type: functional
[4] = MITF: Counter assay: A375 proliferation Measured in Cell-Based System Using Plate Reader - 2084-03_Inhibitor_Dose_DryPowder_Activity_Set8.; type: functional; conditions: A-375
Protein RecA = molecular target: T3, Protein RecA (Mycobacterium tuberculosis, UniProt P9WHJ3); assay: Fluorescence Cell-Free Homogeneous Dose Retest to Identify Inhibitors of RecA-Intein Splicing Activity. [Related pubchem assays (depositor defined):AID2097, AID2223, AID489010, AID492950]; type: functional
T3 sequence (P9WHJ3 whole entry): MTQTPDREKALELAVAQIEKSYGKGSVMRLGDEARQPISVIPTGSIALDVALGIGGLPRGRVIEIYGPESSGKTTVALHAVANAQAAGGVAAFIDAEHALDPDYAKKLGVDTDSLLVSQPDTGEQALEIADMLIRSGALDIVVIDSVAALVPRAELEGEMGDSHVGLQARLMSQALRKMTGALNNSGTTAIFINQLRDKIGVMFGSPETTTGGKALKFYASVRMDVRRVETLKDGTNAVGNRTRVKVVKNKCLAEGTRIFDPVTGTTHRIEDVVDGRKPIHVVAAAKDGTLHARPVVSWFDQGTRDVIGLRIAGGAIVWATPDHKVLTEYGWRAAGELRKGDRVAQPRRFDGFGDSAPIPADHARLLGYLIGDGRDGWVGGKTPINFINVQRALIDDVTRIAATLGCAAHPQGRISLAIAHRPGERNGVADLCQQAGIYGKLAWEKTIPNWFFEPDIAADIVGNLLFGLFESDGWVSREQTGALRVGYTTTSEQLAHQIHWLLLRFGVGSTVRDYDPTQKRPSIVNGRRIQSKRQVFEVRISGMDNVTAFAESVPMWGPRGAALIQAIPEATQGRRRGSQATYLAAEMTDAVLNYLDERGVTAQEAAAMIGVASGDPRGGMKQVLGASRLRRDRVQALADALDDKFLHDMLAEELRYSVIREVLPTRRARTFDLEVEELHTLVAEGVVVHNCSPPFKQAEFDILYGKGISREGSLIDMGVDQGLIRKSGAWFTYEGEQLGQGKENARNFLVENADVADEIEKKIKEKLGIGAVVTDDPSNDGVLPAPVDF

[5] = fluconazole-exposed Candida albicans growth modulators – fluorescence, retest, confirmation (AID 2467); type: functional, cell-based
Caspase-6 = molecular target: T4, Caspase-6 (Homo sapiens, UniProt P55212); assay: inhibition of CASP6 peptide cleavage – biochemical, VEID-R110 fluorescence, cherry-pick, dose response (AID 720632)
T4 sequence (P55212 whole entry): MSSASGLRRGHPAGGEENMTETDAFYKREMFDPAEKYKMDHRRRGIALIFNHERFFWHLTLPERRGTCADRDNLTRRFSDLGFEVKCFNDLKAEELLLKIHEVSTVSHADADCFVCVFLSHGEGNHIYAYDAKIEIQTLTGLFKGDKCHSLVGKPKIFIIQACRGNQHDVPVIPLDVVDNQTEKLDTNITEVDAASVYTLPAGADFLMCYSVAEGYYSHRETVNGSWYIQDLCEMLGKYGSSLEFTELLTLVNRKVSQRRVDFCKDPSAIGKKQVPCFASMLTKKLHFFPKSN

[6] = molecular target: T5, Apoptotic protease-activating factor 1 (Homo sapiens, UniProt O14727); type: functional
T5 sequence (O14727 whole entry): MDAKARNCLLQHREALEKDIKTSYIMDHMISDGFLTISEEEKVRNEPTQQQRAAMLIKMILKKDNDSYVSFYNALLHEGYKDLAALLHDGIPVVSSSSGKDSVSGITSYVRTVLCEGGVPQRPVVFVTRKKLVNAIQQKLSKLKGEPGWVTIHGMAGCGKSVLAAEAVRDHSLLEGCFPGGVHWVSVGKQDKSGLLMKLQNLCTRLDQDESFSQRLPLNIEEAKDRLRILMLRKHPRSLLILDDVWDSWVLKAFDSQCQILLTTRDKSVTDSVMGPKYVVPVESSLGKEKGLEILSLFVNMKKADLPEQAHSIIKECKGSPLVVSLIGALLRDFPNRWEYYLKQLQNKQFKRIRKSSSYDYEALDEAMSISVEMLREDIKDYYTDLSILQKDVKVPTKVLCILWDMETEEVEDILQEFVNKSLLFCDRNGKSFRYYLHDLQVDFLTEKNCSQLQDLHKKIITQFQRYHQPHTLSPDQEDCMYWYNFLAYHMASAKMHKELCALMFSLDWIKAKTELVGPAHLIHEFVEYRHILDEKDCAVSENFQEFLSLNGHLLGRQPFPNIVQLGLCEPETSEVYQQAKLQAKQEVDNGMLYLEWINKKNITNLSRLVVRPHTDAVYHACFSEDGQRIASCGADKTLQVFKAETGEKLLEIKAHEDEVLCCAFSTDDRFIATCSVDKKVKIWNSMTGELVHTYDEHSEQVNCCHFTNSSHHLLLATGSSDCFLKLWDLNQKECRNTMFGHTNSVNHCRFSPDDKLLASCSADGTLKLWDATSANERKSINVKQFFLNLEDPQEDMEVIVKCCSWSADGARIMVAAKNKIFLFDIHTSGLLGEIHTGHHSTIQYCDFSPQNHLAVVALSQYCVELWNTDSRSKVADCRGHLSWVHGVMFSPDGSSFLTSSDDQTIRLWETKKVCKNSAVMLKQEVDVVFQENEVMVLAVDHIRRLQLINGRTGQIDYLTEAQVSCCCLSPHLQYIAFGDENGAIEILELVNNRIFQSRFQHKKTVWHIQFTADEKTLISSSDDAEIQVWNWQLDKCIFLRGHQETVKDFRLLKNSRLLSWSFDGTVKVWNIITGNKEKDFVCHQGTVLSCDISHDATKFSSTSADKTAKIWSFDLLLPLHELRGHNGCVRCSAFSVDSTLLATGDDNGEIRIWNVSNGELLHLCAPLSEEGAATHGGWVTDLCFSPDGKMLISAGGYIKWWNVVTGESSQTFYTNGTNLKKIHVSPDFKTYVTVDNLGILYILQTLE

[7] = microbe, parasite or virus in culture; type: functional; conditions: Mycobacterium tuberculosis
[8] = molecular target: Dual specificity tyrosine-phosphorylation-regulated kinase 1A (Rattus norvegicus, UniProt Q63470); type: biochemical, Homo sapiens
Caspase-9 = Caspase-9 (Homo sapiens, UniProt P55211); assay: inhibitors of purified CASP9 protease – biochemical, fluorescence, plate reader, cherry-picked samples, selectivity assay for caspase-6 inhibitor project, dose response (AID 743293)
[9] = NIH-3T3 fibroblast cytotoxicity, dose response, cytotoxicity control, cell-based, fluorescence, Alamar Blue, secondary assay (AID 2327); type: functional;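 also: NIH-3T3 mouse fibroblasts cultured with fluconazole at 8 µg/mL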
[10] = molecular target: T6, Zinc finger protein mex-5 (Caenorhabditis elegans, UniProt Q9XUB2); assay: potency of MEX-5 RNA-binding blockers – biochemical, C. elegans, fluorescence polarization, dose response (AID 1960)
T6 sequence (Q9XUB2 whole entry): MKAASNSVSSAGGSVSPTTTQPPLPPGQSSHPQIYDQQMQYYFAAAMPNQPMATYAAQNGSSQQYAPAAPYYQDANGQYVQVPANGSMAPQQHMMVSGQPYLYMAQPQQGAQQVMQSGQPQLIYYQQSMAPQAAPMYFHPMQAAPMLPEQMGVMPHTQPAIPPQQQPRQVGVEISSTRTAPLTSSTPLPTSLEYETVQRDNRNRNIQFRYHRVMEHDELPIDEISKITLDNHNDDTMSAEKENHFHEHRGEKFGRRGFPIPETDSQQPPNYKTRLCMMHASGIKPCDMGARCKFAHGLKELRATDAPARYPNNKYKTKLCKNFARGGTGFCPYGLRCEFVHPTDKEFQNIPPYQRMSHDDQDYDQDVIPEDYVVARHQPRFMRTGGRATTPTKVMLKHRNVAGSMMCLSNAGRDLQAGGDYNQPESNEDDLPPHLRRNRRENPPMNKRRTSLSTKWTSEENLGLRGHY

Caspase-7 = Caspase-7 (Homo sapiens, UniProt P55210); assay: caspase-7 enzyme inhibition, selectivity check – biochemical, DEVD-R110 fluorescence, cherry-pick, selectivity assay for caspase-6 inhibitor project, dose response (AID 743295); type: functional
[11] = molecular target: T7, RNA-binding protein pos-1 (Caenorhabditis elegans, UniProt G5EF15); assay: disruptors of C. elegans POS-1 RNA interaction – biochemical, fluorescence polarization, dose response (AID 1964);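 also: purified POS-1 fused to maltose binding protein made in E. coli; potency of compounds blocking POS-1 binding to fluorescent RNA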
T7 sequence (G5EF15 whole entry): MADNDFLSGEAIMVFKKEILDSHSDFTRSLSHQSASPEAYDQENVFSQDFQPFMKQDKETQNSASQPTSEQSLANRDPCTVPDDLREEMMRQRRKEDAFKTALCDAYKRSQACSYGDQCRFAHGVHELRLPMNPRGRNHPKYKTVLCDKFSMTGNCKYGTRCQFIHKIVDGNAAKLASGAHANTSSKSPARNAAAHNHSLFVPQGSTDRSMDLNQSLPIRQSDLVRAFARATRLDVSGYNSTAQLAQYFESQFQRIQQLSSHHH

[12] = general cell-killing toxicity readout – plate reader, dry powder samples, cytotoxicity control for PAX8 inhibitor project, dose response (AID 743021); type: functional, cell-based
[13] = Luminescence Cell-Based Dose Retest to Confirm Inhibitors of Cancer Stem Cells. [Related pubchem assays (depositor defined):AID2717, AID2721]; type: functional; conditions: Homo sapiens
[14] = toxicity toward HepG2 hepatoma cells – cell-based, dry powder samples, cytotoxicity control, dose response (AID 720568); type: functional

Chain of Caspase-7 (P55210 24-198 limits assumed): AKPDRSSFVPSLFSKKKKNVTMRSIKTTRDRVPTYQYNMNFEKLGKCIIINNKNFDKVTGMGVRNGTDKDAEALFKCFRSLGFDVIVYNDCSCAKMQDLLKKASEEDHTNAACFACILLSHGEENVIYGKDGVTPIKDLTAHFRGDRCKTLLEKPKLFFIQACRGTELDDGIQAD
Chain of Caspase-7 (P55210 207-303 limits assumed): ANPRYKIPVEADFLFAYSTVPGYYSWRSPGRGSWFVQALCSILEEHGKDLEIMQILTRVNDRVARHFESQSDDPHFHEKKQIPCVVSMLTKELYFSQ
Chain of Caspase-9 (P55211 1-315 limits assumed): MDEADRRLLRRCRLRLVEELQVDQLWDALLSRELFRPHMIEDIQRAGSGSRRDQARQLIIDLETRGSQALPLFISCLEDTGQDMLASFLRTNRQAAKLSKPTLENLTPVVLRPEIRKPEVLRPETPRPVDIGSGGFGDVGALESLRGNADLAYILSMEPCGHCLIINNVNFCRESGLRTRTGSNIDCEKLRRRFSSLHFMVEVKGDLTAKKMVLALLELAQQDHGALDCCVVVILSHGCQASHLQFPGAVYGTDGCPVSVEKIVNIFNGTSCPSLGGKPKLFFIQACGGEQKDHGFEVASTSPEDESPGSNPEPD
Chain of Caspase-9 (P55211 331-416 limits assumed): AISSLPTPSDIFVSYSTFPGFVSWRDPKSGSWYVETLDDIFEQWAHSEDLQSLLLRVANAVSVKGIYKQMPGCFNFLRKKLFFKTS
Chain of Genome polyprotein (P29990 2492-3391 limits assumed): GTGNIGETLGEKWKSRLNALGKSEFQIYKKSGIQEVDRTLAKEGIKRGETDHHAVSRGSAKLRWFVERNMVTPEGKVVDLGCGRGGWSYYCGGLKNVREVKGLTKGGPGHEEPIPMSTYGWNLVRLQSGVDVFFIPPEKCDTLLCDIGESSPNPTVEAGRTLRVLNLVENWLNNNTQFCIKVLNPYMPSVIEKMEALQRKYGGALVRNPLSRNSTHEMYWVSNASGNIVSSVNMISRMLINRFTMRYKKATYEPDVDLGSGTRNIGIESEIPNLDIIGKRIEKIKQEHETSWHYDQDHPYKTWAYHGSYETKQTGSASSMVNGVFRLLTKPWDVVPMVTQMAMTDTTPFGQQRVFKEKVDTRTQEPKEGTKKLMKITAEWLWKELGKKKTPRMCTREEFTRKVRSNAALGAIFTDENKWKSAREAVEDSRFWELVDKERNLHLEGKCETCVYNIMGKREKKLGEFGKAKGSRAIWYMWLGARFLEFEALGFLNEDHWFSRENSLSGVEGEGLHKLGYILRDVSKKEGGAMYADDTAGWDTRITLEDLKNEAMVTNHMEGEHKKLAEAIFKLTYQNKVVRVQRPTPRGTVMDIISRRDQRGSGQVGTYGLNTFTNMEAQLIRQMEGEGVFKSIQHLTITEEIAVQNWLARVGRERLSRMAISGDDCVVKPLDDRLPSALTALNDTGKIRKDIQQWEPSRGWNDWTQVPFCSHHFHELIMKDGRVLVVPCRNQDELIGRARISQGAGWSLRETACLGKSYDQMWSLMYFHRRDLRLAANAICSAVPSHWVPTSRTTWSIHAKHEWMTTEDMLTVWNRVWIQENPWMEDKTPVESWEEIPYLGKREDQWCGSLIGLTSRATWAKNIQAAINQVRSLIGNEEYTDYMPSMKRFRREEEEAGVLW
Chain of fMet-Leu-Phe receptor (P21462 whole entry): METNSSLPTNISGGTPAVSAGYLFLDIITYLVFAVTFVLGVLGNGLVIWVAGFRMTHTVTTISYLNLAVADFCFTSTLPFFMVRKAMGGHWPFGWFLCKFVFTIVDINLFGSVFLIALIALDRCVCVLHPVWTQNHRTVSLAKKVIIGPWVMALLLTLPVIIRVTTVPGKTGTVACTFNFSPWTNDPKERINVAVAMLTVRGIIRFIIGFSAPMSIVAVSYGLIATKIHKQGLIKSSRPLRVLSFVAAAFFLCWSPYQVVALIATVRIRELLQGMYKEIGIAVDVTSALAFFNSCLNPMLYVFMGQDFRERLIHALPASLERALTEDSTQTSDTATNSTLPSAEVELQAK

Cc1sc(NC(=O)C2CCCCC2C(=O)O)c(C(N)=O)c1-c1ccc(C(C)(C)C)cc1 (stereo unspecified)
IC50 (Leucine aminopeptidase): 11.1 µM (active) | IC50 (Genome polyprotein): 60.1 µM (active) | EC50 [1]: 5.33 µM (active) | Ki (fMet-Leu-Phe receptor): 41.2 µM (inactive)

O=C1C=C(Nc2ccc(Cl)c(C(F)(F)F)c2)C(=O)c2ccccc21
AC50 [2]: 0.754 µM (active) | AC50 [3]: > 70 µM (inactive) | AC50 [4]: > 70 µM (inactive)

CN1CCc2cc3c(c4c2C1Cc1ccccc1-4)OCO3 (stereo unspecified) [ROEMERINE]
EC50 (Protein RecA): 0.0797 µM (active) | EC50 [5]: > 38 µM (not active) | AC50 (Caspase-6): 3.68 µM (active) | IC50 [6]: 10.2 µM (active) | CC50 [7]: > 40 µM (active) | AC50 [8]: 2.54 µM (active) | AC50 (Caspase-9): > 70 µM (inactive) | EC50 [9]: > 150 µM (inactive) | EC50 [10]: 21.5 µM (inconclusive) | AC50 (Caspase-7): 1.51 µM (active) | EC50 [11]: 16.8 µM (active)

Nc1nc(=S)c2ncn([C@@H]3O[C@H](CO)[C@@H](O)[C@H]3O)c2[nH]1 [THIOGUANOSINE]
AC50 [12]: 2.21 µM (active) | AC50 [13]: 0.301 µM (active) | AC50 [14]: 6.38 µM (active)
